Experimental data as given in patent US7125964B2, “Purification of antigen-specific T cells” (Ortho-McNeil Pharmaceutical, Inc., priority 1996, dated 2006).
Where two headings read alike, the source gives them in different places.

Experiments:
2C T cells [1] = assay: Cell-bead complex formation, flow cytofluorometry, side scatter versus forward scatter dot plots; assay type: cell-based, mouse; conditions: 4 hours of incubation
2C T cells [2] = assay: Recovery of 2C T cells mixed with CD8^+ T cells from naive C57BL/6 mouse by adsorption on MHC class I-coated magnetic beads; assay type: cell-based; conditions: for % 2C T cell after enrichment: 0.03% 2C T cells before enrichment
Description: T cell precursor frequencies in a naive animal are typically low. Magnetic beads have been found suitable in other systems to enrich low frequency cell populations (Sawada et al., 1990; Kato and Radbruch, 1993). To assess whether MHC class I-coated magnetic beads could be used for T cell precursor enrichment, we mixed fluorescein-labeled 2C T cells with CD8^+ T cells purified from naive C57BL/6 mice. After incubation with MHC-coated magnetic beads in the presence of peptide, adsorbed cells were eluted and counted, and the percentage of 2C T cells was determined by flow cytofluorometry. In the experiment shown in FIG. 5, 2C T cells were undetectable at the initial frequency of 0.03%. Following adsorption using K^bm3-coated beads and dEV-8 peptide, a definite peak of green fluorescence was observed, displaying the same intensity as the original fluorescein-stained 2C T cell population. This peak represented 65.1% of the eluted cells. No peak was observed when a control peptide was used instead of dEV-8. […] In all cases, the non-fluorescent cells in the eluted population represented only a minor fraction of the initial cell population (˜0.2%).

2C T cells [3] = assay: Influence of temperature and CD8 on cell-bead complex formation, flow cytofluorometry; assay type: cell-based, mouse; conditions: for CD8 dependence of cell capture: purified 2C T cells versus CD8^− 2C T cells, room temperature, 3 hours
Description: We used flow cytofluorometry analysis to quantitate the influence of various parameters on cell-bead complex formation. Attachment of cells to beads was time dependent. […] Kinetics of adsorption were remarkably parallel for various peptide-MHC complexes. At 4° C., only a small percentage of cells was captured on beads, even after prolonged incubation. […] ([…], 1996).

[4] = target: 2C T cell receptor (2C TCR) on naive T cells purified from 2C TCR transgenic mice (mouse); assay: 2C T cells with MHC-coated magnetic beads, 4 h, flow cytofluorometry, forward versus side scatter
[5] = target: 2C T cell receptor (2C TCR) on naive T cells purified from 2C TCR transgenic mice (mouse); assay: 2C T cells mixed with CD8+ T cells of naive B6 mouse (0.03%), adsorption on MHC class I-coated magnetic beads, 2 experiments
2C T cells [6] = assay: Capture of 2C T cells on MHC-coated magnetic beads, microscopic examination; assay type: cell-based, mouse; conditions: readout not stated
2C TCR = conditions: association constant, cited from earlier work; for affinity of peptide-MHC complex for the 2C TCR: recently determined; for 2C TCR affinity for L^d-peptide: Sykulev et al, 1994 a, b
L^d = target: T1, L^d (Mus musculus, UniProt P01897); conditions: association constant; cited from earlier work
T1 sequence (P01897 25-298 limits assumed): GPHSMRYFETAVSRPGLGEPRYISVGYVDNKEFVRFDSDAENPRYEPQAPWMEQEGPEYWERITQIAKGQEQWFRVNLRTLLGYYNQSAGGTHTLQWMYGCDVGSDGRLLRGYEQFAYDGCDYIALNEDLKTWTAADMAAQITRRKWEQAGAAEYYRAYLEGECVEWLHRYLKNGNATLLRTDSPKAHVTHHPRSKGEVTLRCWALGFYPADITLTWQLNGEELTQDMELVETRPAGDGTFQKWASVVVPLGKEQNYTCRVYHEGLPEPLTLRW
T1 sequence (P01887 21-119 partner): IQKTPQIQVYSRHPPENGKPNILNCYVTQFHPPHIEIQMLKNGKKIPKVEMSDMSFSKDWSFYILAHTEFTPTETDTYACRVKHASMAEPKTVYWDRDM

[7] = target: 2C T cell receptor (2C TCR) on naive T cells purified from 2C TCR transgenic mice (mouse); assay: 2C T cells with MHC-coated magnetic beads, flow cytofluorometry, forward versus side scatter
[8] = target: 2C T cell receptor (2C TCR) on naive T cells purified from 2C TCR transgenic mice (mouse); assay: fluorescein-labeled 2C T cells with phycoerythrin-labeled L^d-coated beads, flow cytofluorometry, green versus red dot plots; laid by the filing to non-specific adsorption of cell debris
[9] = target: 2C T cell receptor (2C TCR) on naive T cells purified from 2C TCR transgenic mice (mouse); assay: 2C T cells mixed with CD8+ T cells of naive B6 mouse (0.03%), adsorption on MHC class I-coated magnetic beads, 3 experiments
[10] = target: 2C T cell receptor (2C TCR) on naive T cells purified from 2C TCR transgenic mice (mouse); assay: fluorescein-labeled 2C T cells with phycoerythrin-labeled L^d-coated beads, flow cytofluorometry, green versus red dot plots
[11] = target: 2C T cell receptor (2C TCR) on naive T cells purified from 2C TCR transgenic mice (mouse); assay: 2C T cells with MHC-coated magnetic beads, flow cytofluorometry, temperature dependence
EL4 cells = assay type: cell-based, mouse
2C T cells [12] = assay: Cell-bead complex formation, flow cytofluorometry, green versus red fluorescence dot plots; assay type: cell-based, mouse; conditions: L^d-coated beads, 20 μM peptide

## EQYKFYSV [dEV-8, ID; NO.: 5]
2C T cells [1]; K^bm3-coated beads
  percentage of cells adsorbed to beads (CO/CO+CE): 63.8%
2C T cells [2]; K^bm3-coated beads
  2C T cell enrichment: 1697 ± 473 fold
  % 2C T cell after enrichment: 50.9 ± 14.2%
2C T cells [3]
  CD8 dependence of cell capture: most CD8-dependent

## K^b-SIYR complex on avidin-coated magnetic beads (from UniProt P01887 21-119; P01901 22-369) (peptide-MHC)
[4]
  % of cells adsorbed to beads: 75.7%
[5]
  2C T cell recovery: 56.8%

## K^b-SIYR: complex of K^b with peptide SIYR
2C T cells [6]
  capture of 2C T cells observed or not: consistently observed capture
2C TCR
  affinity of peptide-MHC complex for the 2C TCR: 31000 M⁻¹

## K^b-dEV-8: complex of K^b with peptide dEV-8
2C T cells [6]
  capture of 2C T cells observed or not: not
2C TCR
  affinity of peptide-MHC complex for the 2C TCR: 12000 M⁻¹

## K^bm3-dEV-8 complex on avidin-coated magnetic beads (from UniProt P01887 21-119) (peptide-MHC)
[4]
  % of cells adsorbed to beads: 63.8%
[5]
  2C T cell recovery: 47.7%

## LSPFPFDL [p2Ca]
2C T cells [1]; L^d-coated beads
  percentage of cells adsorbed to beads (CO/CO+CE): 78.9%
2C T cells [3]
  CD8 dependence of cell capture: most CD8-dependent
2C TCR
  2C TCR affinity for L^d-peptide: 2e+06 M⁻¹
L^d
  Peptide affinity for L^d: 4e+06 M⁻¹

## L^d-LCMV complex on avidin-coated magnetic beads (from UniProt P01887 21-119; P01897 25-362) (peptide-MHC)
[7]
  % of events in the complex region: 2.6%
[8]
  % red and green colored events: 2.2%

## L^d-QL9 complex on avidin-coated magnetic beads (from UniProt P01887 21-119; P01897 25-362) (peptide-MHC)
[4]
  % of cells adsorbed to beads: 91%
[9]
  2C T cell recovery: 90%
[10]
  % of cells complexed to beads: > 85%

## L^d-QL9: complex of MHC class I molecule L^d with peptide QL9
2C T cells [3]
  CD8 dependence of cell capture: largely CD8 independent

## L^d-SL9 complex on avidin-coated magnetic beads (from UniProt P01887 21-119; P01897 25-362) (peptide-MHC)
[10]
  % of cells complexed to beads: > 85%

## L^d-SL9: complex of L^d with peptide SL9
2C TCR
  affinity of peptide-MHC complex for the 2C TCR: 14000 M⁻¹

## L^d-p2Ca complex on avidin-coated magnetic beads (from UniProt P01887 21-119; P01897 25-362) (peptide-MHC)
[11]
  attachment level at 37° C. against the value at room temperature: 25%
[4]
  % of cells adsorbed to beads: 78.9%
[10]
  % of cells complexed to beads: > 85%

## L^d-p2Ca-A3: complex of L^d with peptide p2Ca-A3
2C T cells [6]
  capture of 2C T cells observed or not: not
2C TCR
  affinity of peptide-MHC complex for the 2C TCR: 20000 M⁻¹

## L^d-p2Ca: complex of L^d with peptide p2Ca
2C T cells [3]; 37° C. versus room temperature
  attachment levels at 37° C. relative to values measured at room temperature: about 25%
2C T cells [3]
  CD8 dependence of cell capture: exhibited CD8 dependence

## QLSPFPFDL [QL9]
2C T cells [1]; L^d-coated beads
  percentage of cells adsorbed to beads (CO/CO+CE): 91.0%
2C T cells [2]; L^d-coated beads
  2C T cell enrichment: 828 ± 230 fold
  % 2C T cell after enrichment: 24.8 ± 6.9%
2C T cells [3]
  CD8 dependence of cell capture: CD8 independent
2C TCR
  2C TCR affinity for L^d-peptide: 10^7 M^−1
L^d
  Peptide affinity for L^d: 2e+08 M⁻¹

## RGYVYQGL [VSV-8]
EL4 cells
  CTL activity of cells captured and cultured with the same peptide: displayed a CTL activity specific for VSV-8
  CTL precursors for the other peptide in captured cells: no detectable anti-OVA-8 CTL precursors

## RPQASGVYM [LCMV]
2C T cells [12]
  percentage of cells complexed to beads (RG/G+RG): 2.2%

## SIINFEKL [OVA-8, ID; NO.: 9]
EL4 cells; K^b-coated beads, naive C57BL/6 CD8^+ T cells, tested at day 18, peptides 1 μM
  CTL activity of cells captured and cultured with the same peptide: displayed a CTL activity specific for OVA-8 peptide
EL4 cells; reverse combination: captured with one peptide, activated in culture with the other
  CTL precursors for the other peptide in captured cells: no detectable anti-VSV-8 CTL precursors

## SIYRYYGL
2C T cells [1]; K^b-coated beads
  percentage of cells adsorbed to beads (CO/CO+CE): 75.7%
2C T cells [2]; K^b-coated beads
  2C T cell enrichment: 1588 ± 71 fold
  % 2C T cell after enrichment: 47.6 ± 2.1%
2C T cells [3]
  CD8 dependence of cell capture: CD8 independent

## SPFPFDLLL [SL9, ID; NO.: 3]
2C TCR
  2C TCR affinity for L^d-peptide: 14000 M⁻¹
L^d
  Peptide affinity for L^d: 4e+07 M⁻¹

## YPHFMPTNL [MCMV, ID; NO.: 8]
2C TCR
  2C TCR affinity for L^d-peptide: <10^3 M^−1
L^d
  Peptide affinity for L^d: 2e+09 M⁻¹

B1: K^b-E1: non-2C reactive complex of K^b with peptide E1 (protein)
MHC heavy: GPHSLRYFVTAVSRPGLGEPRYMEVGYVDDTEFVRFDSDAENPRYEPRARWMEQEGPEYWERETQKAKGNEQSFRVDLRTLLGYYNQSKGGSHTIQVISGCEVGSDGRLLRGYQQYAYDGCDYIALNEDLKTWTAADMAALITKHKWEQAGEAERLRAYLEGTCVEWLRRYLKNGNATLLRTDSPKAHVTHHSRPEDKVTLRCWALGFYPADITLTWQLNGEELIQDMELVETRPAGDGTFQKWASVVVPLGKEQYYTCHVYHQGLPEPLTLRWEPPPSTVSNMATVAVLVVLGAAIVTGAVVAFVMKMRRRNTGGKGGDYALAPGSQTSDLSLPDCKVMVHDPHSLA
b2m: IQKTPQIQVYSRHPPENGKPNILNCYVTQFHPPHIEIQMLKNGKKIPKVEMSDMSFSKDWSFYILAHTEFTPTETDTYACRVKHASMAEPKTVYWDRDM
peptide: EIINFEKL
2C T cells [1]; K^b-coated beads
  percentage of cells adsorbed to beads (CO/CO+CE): 0.2%
